Laboratory results: paper PMC10046037, “GABRG2 Variants Associated with Febrile Seizures” (Biomolecules, 2023)

Target: T1, α1β3γ2 GABAA receptor, γ2R224X variant (Homo sapiens, UniProt P14867+P28472)
T1 construct: expressed in transfected cells; host or cells: HEK293T
T1 sequence (P14867 28-456): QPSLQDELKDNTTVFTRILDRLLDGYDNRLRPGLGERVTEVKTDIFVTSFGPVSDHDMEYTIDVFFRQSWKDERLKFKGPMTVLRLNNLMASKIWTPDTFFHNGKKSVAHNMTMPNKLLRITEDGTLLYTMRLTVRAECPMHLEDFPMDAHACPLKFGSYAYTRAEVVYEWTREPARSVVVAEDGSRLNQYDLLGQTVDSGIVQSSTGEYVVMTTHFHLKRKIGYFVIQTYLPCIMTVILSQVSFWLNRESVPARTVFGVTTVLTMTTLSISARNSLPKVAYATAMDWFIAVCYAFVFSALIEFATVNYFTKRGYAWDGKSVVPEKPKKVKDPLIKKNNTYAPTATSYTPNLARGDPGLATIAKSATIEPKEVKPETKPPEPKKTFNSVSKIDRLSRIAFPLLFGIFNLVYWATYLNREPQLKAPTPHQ
T1 sequence (P28472 1-473 isoform P28472-2): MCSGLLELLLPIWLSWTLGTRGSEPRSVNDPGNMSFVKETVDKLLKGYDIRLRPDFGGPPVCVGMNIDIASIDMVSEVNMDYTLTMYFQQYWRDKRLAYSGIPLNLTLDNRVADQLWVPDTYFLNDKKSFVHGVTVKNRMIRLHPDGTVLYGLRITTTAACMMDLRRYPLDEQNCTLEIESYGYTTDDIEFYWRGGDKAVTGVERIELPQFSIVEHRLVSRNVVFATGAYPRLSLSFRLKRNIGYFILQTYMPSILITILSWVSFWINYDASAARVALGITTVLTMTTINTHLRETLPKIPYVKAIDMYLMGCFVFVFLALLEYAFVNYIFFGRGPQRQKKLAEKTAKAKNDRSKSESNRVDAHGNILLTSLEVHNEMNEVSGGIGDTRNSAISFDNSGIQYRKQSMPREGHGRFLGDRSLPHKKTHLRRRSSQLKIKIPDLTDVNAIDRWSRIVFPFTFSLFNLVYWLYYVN
Test: Automated patch clamp of GABA-elicited currents (SyncroPatch 384PE), γ2R224X
Assay type: cell-based
Settings: mean
Experimental: The coding sequences of human α1 (GABRA1, NM_000806), β3 (GABRB3, NM_021912), and γ2 (GABRG2, NM_198904.2) GABAAR subunits were subcloned into the pcDNA3.1 expression vectors (Invitrogen, Waltham, MA, USA).
HEK293T cells (ATCC, CRL-11268) were cultured at 37 °C in a humidified 5% CO2 incubator and maintained in Dulbecco’s modified Eagle’s medium (Invitrogen) supplemented with 10% fetal bovine serum (Life Technologies, Carlsbad, CA, USA), and 100 IU/mL of penicillin/streptomycin (Life Technologies). For the expression experiments, 4 × 10^5 cells were transfected using polyethylenimine (PEI) reagent (40 kD, Polysciences, Warrington, PA, USA) at a DNA: to transfection reagent ratio of 1:2.5 and harvested 36 h after transfection. To express WT and variant α1β3γ2 receptors, a total of 3 µg of α1, β3, and γ2 (WT or mutant) subunit cDNAs were transfected at a ratio of 1:1:1 into 60 mm culture dishes. For the mock-transfected condition, an empty pcDNA3.1 vector was added for a final cDNA transfection amount of 3 μg. For the electrophysiology experiments, 2.5 × 10^5 cells were plated in 100 mm culture dishes and transfected after 24 h with 3 μg of cDNA of each α1, β3, γ2 (wild-type or mutant) subunit, using X-tremeGENE HP DNA transfection Reagent (Roche Diagnostics, Basel, Switzerland), following the manufacturer’s protocol. Recordings were obtained forty-eight hours after transfection.
Whole-cell patch clamp recordings were conducted according to the manufacturer’s standard procedure for the SyncroPatch 384 [31]. Whole-cell voltage-clamp recordings were performed at room temperature on HEK293T cells 48 h after transfection with GABAAR subunits, using the SyncroPatch 384PE (Nanion Technologies, Munich, Germany). Cells, at a concentration of 400,000 cells/mL, were harvested in suspension in external solution containing 140 mM of NaCl, 2 mM of CaCl2, 4 mM of KCl, 1 mM of MgCl2, 5 mM of glucose, and 10 mM of HEPES (pH 7.4 with NaOH, 298 mOsm). The cells were loaded in a multi-hole (4 holes per well) 384-well Nanion patch clamp (NPC) chip with a thick borosilicate glass bottom and an average resistance pore size of […]. Built-in electrophysiological protocols were used, and the data were digitized using PatchControl 384 (Nanion Technologies) application. Using PatchControl 384, electrophysiological parameters, such as seal resistance, capacitance, and series resistance, were determined for each well after the application of a test pulse, and subsequently monitored over time. […] The currents were normalized to the maximal response of each well, and the concentration–response curves were calculated from single-point additions. The EC50 values for each variant or wild-type receptor were calculated across multiple wells for each experimental condition.

How did the Deactivation (1 mM GABA for 5 ms, HEK293T, -80 mV) turn out when NCCCC(=O)O [GABA, γ-aminobutyric acid] was run?
Its Deactivation is 350.1 ms.

What about the “IMAX (maximal GABA-evoked peak current)” value (1 mM GABA for 5 ms, HEK293T) of the same compound?
The value was 0.85 nA.

What about the “IMAX variant/IMAX WT” value (1 mM GABA) of the same compound?
Its value is 42.52%.

And the “Rise Time” value (10–90% rise time, 1 mM GABA for 5 ms, HEK293T)?
The value was 72.64 ms.
